Test results reported in patent US11512053B2, “Arginine methyltransferase inhibitors and uses thereof” (priority 2013, dated 2022).
Where two headings read alike, the source gives them in different places.

Biological target: full-length human PRMT8 isoform 1 (Homo sapiens, UniProt Q9NR22)
Assay: PRMT8 Biochemical Assay (3H-SAM Flashplate, peptide substrate)
Details: read-out: Biochemical IC50 PRMT8
How it was run: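 Scintillation Flashplate capture of biotinylated histone H4 (31-45) peptide (150 nM) methylated by 1.5 nM PRMT8 using 3H-SAM (50 nM) with unlabelled SAM (550 nM); enzyme and compound preincubated 30 min, room temperature, in Bicine pH 7.6 buffer with TCEP, BSG, Tween 20 and 2% DMSO. Stopped with excess cold SAM (400 uM); IC50 from % inhibition, min control 1 mM SAH.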

[1] = single experiment or average of multiple experiments

Sequence of full-length human PRMT8 isoform 1 (Q9NR22 whole entry, canonical isoform): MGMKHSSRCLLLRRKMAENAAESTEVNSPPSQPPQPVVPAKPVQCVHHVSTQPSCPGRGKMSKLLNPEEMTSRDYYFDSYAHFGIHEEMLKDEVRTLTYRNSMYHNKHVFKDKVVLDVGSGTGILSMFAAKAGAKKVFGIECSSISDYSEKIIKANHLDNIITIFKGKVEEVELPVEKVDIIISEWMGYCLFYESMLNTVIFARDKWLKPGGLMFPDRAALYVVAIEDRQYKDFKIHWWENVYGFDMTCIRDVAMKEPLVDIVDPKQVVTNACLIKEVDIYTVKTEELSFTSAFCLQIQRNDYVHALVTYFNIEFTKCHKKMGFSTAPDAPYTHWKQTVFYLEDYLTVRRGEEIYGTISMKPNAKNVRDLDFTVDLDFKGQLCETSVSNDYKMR

Structure (SMILES)	IC50	IC50 [1]
CNCCN(C)Cc1c[nH]nc1C1CCC(=O)N(Cc2ccc(C(F)(F)F)cc2)C1 (stereo not drawn) [Compound 191]	101 to 1000 nM	152 nM
CCN(C(=O)CC1CCOCC1)[C@H]1CC[C@H](c2n[nH]cc2CN(C)CCNC)CC1 [Compound 195]	< 100 nM	35.6 nM
CNCCN(C)Cc1c[nH]nc1[C@H]1CC[C@@H](C(=O)NCCC(C)C)CC1 [Compound 204]	< 100 nM	51.6 nM
CNCCN(C)Cc1c[nH]nc1[C@H]1CC[C@H](C(=O)N(C)CCOc2ccccc2)CC1 [Compound 258]	< 100 nM	10.8 nM
CNCCN(C)Cc1c[nH]nc1[C@H]1CC[C@H](N(CCOc2ccccc2)C(=O)CCCOC)CC1 [Compound 229]	< 100 nM	16 nM
CNCCN(C)Cc1c[nH]nc1[C@H]1CC[C@@]2(CCC(C)(C)O2)CC1 [Compound 260]	< 100 nM	37.3 nM
CNCCN(C)Cc1c[nH]nc1[C@H]1CC[C@H](C(=O)N(C)CC(C)C)CC1 [Compound 226]	< 100 nM	57.6 nM
CNCCN(C)Cc1c[nH]nc1C1C[C@H](C(=O)N(C)CC(C)C)C(C)(C)[C@H](C(=O)N(C)CC(C)C)C1 (stereo partly drawn) [Compound 267]	3010 to 10000 nM	5910 nM
CNCCN(C)Cc1c[nH]nc1[C@H]1CC[C@@H](C(=O)N(CCCOC)CCC(C)C)CC1 [Compound 214]	< 100 nM	27.4 nM
CCC(=O)N(CCOc1ccccc1)[C@H]1CC[C@H](c2n[nH]cc2CN(C)CCNC)CC1 [Compound 221]	< 100 nM	15.4 nM
CNCCN(C)Cc1c[nH]nc1[C@H]1CC[C@]2(CCCO2)OC1 [Compound 198]	3010 to 10000 nM	≥ 10000 nM
CN(CCN)Cc1c[nH]nc1[C@H]1CC[C@]2(CC1)CC(C)(C)CO2 [Compound 208]	< 100 nM	12.8 nM
CNCCN(C)Cc1c[nH]nc1[C@H]1CC[C@@H](N(CCCOC)C(=O)CCC(C)C)CC1 [Compound 244]	101 to 1000 nM	113 nM
CNCCN(C)Cc1c[nH]nc1[C@H]1CC[C@]2(CCOC2(C)C)CC1 [Compound 253]	< 100 nM	11.7 nM
CNCCN(C)Cc1c[nH]nc1[C@H]1CC[C@@H](N(CCC(C)C)C(=O)CCOC)CC1 [Compound 235]	< 100 nM	44 nM
CNCCN(C)Cc1c[nH]nc1[C@H]1CC[C@@H](N(CC(C)C)C(=O)CCOc2ccccc2)CC1 [Compound 231]	< 100 nM	9.32 nM
CNCCN(C)Cc1c[nH]nc1[C@H]1CC[C@@H](C(=O)N(C)CCOc2ccccc2)CC1 [Compound 259]	< 100 nM	17.1 nM
CNCCN(C)Cc1c[nH]nc1[C@H]1CC[C@H](C(=O)N(CCCOC)CCC(C)C)CC1 [Compound 213]	101 to 1000 nM	165 nM
CNCCN(C)Cc1c[nH]nc1[C@H]1CC[C@H](C(=O)N(C)CCC(C)C)CC1 [Compound 209]	< 100 nM	43.9 nM
CNCCN(C)Cc1c[nH]nc1[C@H]1CC[C@@H](C(=O)NCCOc2ccccc2)CC1 [Compound 212]	< 100 nM	8.28 nM
CNCCN(C)Cc1c[nH]nc1C1CCC(C)(C)[C@@H](C(=O)OC)C1 (stereo partly drawn) [Compound 255]	< 100 nM	24.5 nM
CNCCN(C)Cc1c[nH]nc1[C@H]1CC[C@H](N(CCOC)C(=O)CCOc2ccccc2)CC1 [Compound 230]	< 100 nM	25.7 nM
CNCCN(C)Cc1c[nH]nc1[C@H]1CC[C@H](N(CCOC)C(=O)CCC(C)C)CC1 [Compound 254]	< 100 nM	44 nM
CNCCN(C)Cc1c[nH]nc1[C@H]1CC[C@H](N(CCC(C)C)C(=O)CCOC)CC1 [Compound 236]	< 100 nM	57.8 nM
